Measured values published in ChEMBL document CHEMBL6103613 (J Med Chem, 2025).
Values after ≈ are worked out from the molar mass of the structure shown.

Legend:
Format in all cases: functional
Staphylococcus aureus [1] = assay: Antimicrobial activity against methicillin-resistant Staphylococcus aureus ATCC 43300 assessed as inhibition of visible bacterial growth incubated for 18 hrs by CLSI based analysis
Staphylococcus aureus [2] = assay: Antimicrobial activity against methicillin-resistant Staphylococcus aureus clinical isolate 4 assessed as inhibition of visible bacterial growth incubated for 18 hrs by CLSI based analysis
Enterococcus faecium = assay: Antimicrobial activity against vancomycin-resistant Enterococcus faecium assessed as inhibition of visible bacterial growth incubated for 18 hrs by CLSI based analysis
Bacillus subtilis = assay: Antimicrobial activity against Bacillus subtilis ATCC 23875 assessed as inhibition of visible bacterial growth incubated for 18 hrs by CLSI based analysis
Staphylococcus aureus [3] = assay: Antimicrobial activity against methicillin-resistant Staphylococcus aureus clinical isolate 2 assessed as inhibition of visible bacterial growth incubated for 18 hrs by CLSI based analysis
Staphylococcus aureus [4] = assay: Antimicrobial activity against Staphylococcus aureus ATCC 25923 assessed as inhibition of visible bacterial growth incubated for 18 hrs by CLSI based analysis
Enterococcus faecalis = assay: Antimicrobial activity against Enterococcus faecalis ATCC 19433 assessed as inhibition of visible bacterial growth incubated for 18 hrs by CLSI based analysis
Staphylococcus aureus [5] = assay: Antibacterial activity against methicillin-resistant Staphylococcus aureus infected in kunming mouse keratitis model assessed as log reduction in colony count at 5 mg/kg, ip measured upto 8 days; settings: time <= 8 day
Staphylococcus aureus [6] = assay: Antimicrobial activity against methicillin-resistant Staphylococcus aureus clinical isolate 3 assessed as inhibition of visible bacterial growth incubated for 18 hrs by CLSI based analysis
[7] = system: Staphylococcus epidermidis; assay: Antimicrobial activity against Staphylococcus epidermidis ATCC 12228 assessed as inhibition of visible bacterial growth incubated for 18 hrs by CLSI based analysis
Enterococcus gallinarum = assay: Antimicrobial activity against Enterococcus gallinarum ATCC 49573 assessed as inhibition of visible bacterial growth incubated for 18 hrs by CLSI based analysis
Staphylococcus aureus [8] = assay: Drug resistance, ratio of MIC for Staphylococcus aureus after 15 passages to MIC for Staphylococcus aureus during first exposure
Staphylococcus aureus [9] = assay: Drug resistance, ratio of MIC for Staphylococcus aureus after 21 passages to MIC for Staphylococcus aureus during first exposure
Staphylococcus aureus [10] = assay: Drug resistance, ratio of MIC for Staphylococcus aureus after 12 passages to MIC for Staphylococcus aureus during first exposure
Staphylococcus aureus [11] = assay: Drug resistance, ratio of MIC for Staphylococcus aureus after 6 passages to MIC for Staphylococcus aureus during first exposure

Row | Compound | MIC (Staphylococcus aureus [1]) [µg/mL] | MIC (Staphylococcus aureus [2]) [µg/mL] | MIC (Enterococcus faecium) [µg/mL] | MIC (Bacillus subtilis) [µg/mL] | MIC (Staphylococcus aureus [3]) [µg/mL] | MIC (Staphylococcus aureus [4]) [µg/mL] | MIC (Enterococcus faecalis) [µg/mL] | FC (Staphylococcus aureus [5]) | MIC (Staphylococcus aureus [6]) [µg/mL] | MIC [7] [µg/mL] | MIC (Enterococcus gallinarum) [µg/mL] | Ratio (Staphylococcus aureus [8]) | Ratio (Staphylococcus aureus [9]) | Ratio (Staphylococcus aureus [10]) | Ratio (Staphylococcus aureus [11])
1 | CC(=O)NC[C@H]1CN(c2ccc(N3CCOCC3)c(F)c2)C(=O)O1 [LINEZOLID] | 1.56 (≈ 4.62 µM) | 1.56 (≈ 4.62 µM) | 1.56 (≈ 4.62 µM) | 1.56 (≈ 4.62 µM) | 3.13 (≈ 9.28 µM) | 1.56 (≈ 4.62 µM) | 1.56 (≈ 4.62 µM) | 0.864 | 1.56 (≈ 4.62 µM) | 0.39 (≈ 1.16 µM) | 1.56 (≈ 4.62 µM) |  |  |  | 
2 | CC1(C)S[C@@H]2[C@H](NC(=O)[C@H](N)c3ccc(O)cc3)C(=O)N2[C@H]1C(=O)O [AMOXICILLIN] |  |  |  |  |  |  |  |  |  |  |  | 250 | 250 | 30 | 10
